From the NIST ThermoML archive (doi:10.1021/acs.jced.5b00838)

Assays:
[1] = 101.33 kPa, Liquid, Vibrating tube method
[2] = excess molar enthalpy (molar enthalpy of mixing); xn = mol fraction of the nth substance listed; conditions: 100 kPa, Liquid, isothermal titration calorimetry

CCCCCCOCC [1-ethoxyhexane]
[1]
Conditions | mass density [kg/m3]
288.15 K | 775.8
293.15 K | 771.47
298.15 K | 767.15
303.15 K | 762.8
308.15 K | 758.45
313.15 K | 754.06
318.15 K | 749.66
323.15 K | 745.27

CCCCCCCOC [1-methoxyheptane]
[1]
Conditions | mass density [kg/m3]
288.15 K | 783.89
293.15 K | 779.71
298.15 K | 775.52
303.15 K | 771.31
308.15 K | 767.09
313.15 K | 762.85
318.15 K | 758.57
323.15 K | 754.3

CCCCCOCCC [1-propoxypentane]
[1]
Conditions | mass density [kg/m3]
288.15 K | 773.45
293.15 K | 769.12
298.15 K | 764.78
303.15 K | 760.4
308.15 K | 756.01
313.15 K | 751.6
318.15 K | 747.19
323.15 K | 742.73

CCCOCCC(C)C [3-methyl-1-propoxybutane]
[1]
Conditions | mass density [kg/m3]
288.15 K | 768.79
293.15 K | 764.43
298.15 K | 760.04
303.15 K | 755.62
308.15 K | 751.22
313.15 K | 746.78
318.15 K | 742.31
323.15 K | 737.84

CCCOCCC(C)C [3-methyl-1-propoxybutane] + CC#N
[2]
Conditions | excess molar enthalpy [kcal/mol]
298.15 K, x2 = 0.0312 | 0.0349
298.15 K, x2 = 0.0606 | 0.0693
298.15 K, x2 = 0.0882 | 0.0976
298.15 K, x2 = 0.1142 | 0.122
298.15 K, x2 = 0.1388 | 0.144
298.15 K, x2 = 0.1841 | 0.178
298.15 K, x2 = 0.2249 | 0.204
298.15 K, x2 = 0.2618 | 0.224
298.15 K, x2 = 0.3259 | 0.253
298.15 K, x2 = 0.3798 | 0.271
298.15 K, x2 = 0.4258 | 0.281
298.15 K, x2 = 0.4654 | 0.286
298.15 K, x2 = 0.5079 | 0.289
298.15 K, x2 = 0.5442 | 0.289
298.15 K, x2 = 0.5756 | 0.287
298.15 K, x2 = 0.6028 | 0.284
298.15 K, x2 = 0.6559 | 0.274
298.15 K, x2 = 0.6774 | 0.269
298.15 K, x2 = 0.6994 | 0.262
298.15 K, x2 = 0.7186 | 0.255
298.15 K, x2 = 0.7355 | 0.248
298.15 K, x2 = 0.7504 | 0.241
298.15 K, x2 = 0.7638 | 0.234
308.15 K, x2 = 0.0302 | 0.0413
308.15 K, x2 = 0.0586 | 0.0789
308.15 K, x2 = 0.0854 | 0.11
308.15 K, x2 = 0.1107 | 0.136
308.15 K, x2 = 0.1347 | 0.158
308.15 K, x2 = 0.1789 | 0.195
308.15 K, x2 = 0.2188 | 0.223
308.15 K, x2 = 0.2551 | 0.245
308.15 K, x2 = 0.2881 | 0.262
308.15 K, x2 = 0.3183 | 0.275
308.15 K, x2 = 0.3716 | 0.293
308.15 K, x2 = 0.4172 | 0.304
308.15 K, x2 = 0.4567 | 0.31
308.15 K, x2 = 0.4992 | 0.313
308.15 K, x2 = 0.5356 | 0.313
308.15 K, x2 = 0.567 | 0.311
308.15 K, x2 = 0.5944 | 0.307
308.15 K, x2 = 0.6231 | 0.302
308.15 K, x2 = 0.648 | 0.295
308.15 K, x2 = 0.6698 | 0.289
308.15 K, x2 = 0.692 | 0.281
308.15 K, x2 = 0.7115 | 0.274
308.15 K, x2 = 0.7146 | 0.269
308.15 K, x2 = 0.7286 | 0.266
308.15 K, x2 = 0.7356 | 0.26
308.15 K, x2 = 0.7438 | 0.259
308.15 K, x2 = 0.7574 | 0.252
308.15 K, x2 = 0.7579 | 0.249
308.15 K, x2 = 0.7816 | 0.236
308.15 K, x2 = 0.8068 | 0.219
308.15 K, x2 = 0.8337 | 0.2
308.15 K, x2 = 0.8507 | 0.186
308.15 K, x2 = 0.8684 | 0.17
308.15 K, x2 = 0.8869 | 0.151
308.15 K, x2 = 0.9061 | 0.13
308.15 K, x2 = 0.9263 | 0.107
308.15 K, x2 = 0.9401 | 0.0886
308.15 K, x2 = 0.9544 | 0.0689
308.15 K, x2 = 0.9691 | 0.0474
308.15 K, x2 = 0.9843 | 0.0234

CC#N [acetonitrile]
[1]
Conditions | mass density [kg/m3]
298.15 K | 776.51
303.15 K | 771.06
308.15 K | 765.59
313.15 K | 760.1
318.15 K | 754.56
323.15 K | 748.99

CCCCOCC(C)C [butyl isobutyl ether]
[1]
Conditions | mass density [kg/m3]
288.15 K | 764.07
293.15 K | 759.72
298.15 K | 755.31
303.15 K | 750.87
308.15 K | 746.45
313.15 K | 741.98
318.15 K | 737.58
323.15 K | 732.99

CCCCOCC(C)C [butyl isobutyl ether] + CC#N
[2], 298.15 K
Conditions | excess molar enthalpy [kcal/mol]
x2 = 0.0314 | 0.0454
x2 = 0.061 | 0.0839
x2 = 0.0887 | 0.116
x2 = 0.1149 | 0.143
x2 = 0.1396 | 0.167
x2 = 0.1851 | 0.204
x2 = 0.2261 | 0.233
x2 = 0.2631 | 0.255
x2 = 0.2967 | 0.273
x2 = 0.3275 | 0.286
x2 = 0.3815 | 0.302
x2 = 0.4274 | 0.31
x2 = 0.4671 | 0.315
x2 = 0.5097 | 0.317
x2 = 0.5459 | 0.316
x2 = 0.5772 | 0.311
x2 = 0.6045 | 0.308
x2 = 0.6329 | 0.301
x2 = 0.6575 | 0.295
x2 = 0.6789 | 0.289
x2 = 0.7009 | 0.282
x2 = 0.7183 | 0.275
x2 = 0.72 | 0.275
x2 = 0.7368 | 0.268
x2 = 0.7392 | 0.267
x2 = 0.7517 | 0.261
x2 = 0.7613 | 0.256
x2 = 0.765 | 0.254
x2 = 0.7847 | 0.242
x2 = 0.8097 | 0.226
x2 = 0.8362 | 0.207
x2 = 0.853 | 0.193
x2 = 0.8705 | 0.177
x2 = 0.8887 | 0.158
x2 = 0.9077 | 0.137
x2 = 0.9275 | 0.112
x2 = 0.9411 | 0.0935
x2 = 0.9552 | 0.073
x2 = 0.9697 | 0.0503
x2 = 0.9846 | 0.0253
